The structures appear in SMILES notation. pEC50: −log10 of the molar value. “And” between values parts separate entries of the source, which are not always exact repeats. Equal values may be shown once. Read-outs that look alike come from different tables or passages of the source. A value given as a limit tells only on which side of the number the result lay.

In general, pEC50 refers to the negative decadic logarithm of the EC50, by convention in mol/L. A word on the CC50: it is the concentration that lowers cell viability or growth by half. A low value points to greater toxicity to the cells.

In series [1] the test system is human immunodeficiency virus-1 (HIV-1). The experiment in a line: anti-HIV MAGI assay. It counts as cell-based. Particulars: anti-HIV. An excerpt: (§1) We examined the inhibitory activities of DDPs against various species of bacteria (both gram-negative and gram-positive bacteria), fungi and viruses. […] In contrast, preliminary screening of the DDPs for anti-viral agents with hepatitis B virus (HBV), measles virus (MV), Epstein-Barr virus (EBV), herpes simplex virus (HSV) and human immunodeficiency virus-1 (HIV-1) indicated their selective inhibition of HIV.

The subject of a further series is MAGI cells. Description: cytotoxicity in the anti-HIV assay (CC50). It counts as cell-based.
Text: as §1
Policy information about cell lines […]
HeLa-CD4-LTR/ !-galactosidase (MAGI) cells provided by Dr. J. Overbaugh through the NIH AIDS Research and Reference […]
MAGI cells were authenticated by the NIH.
Mycoplasma contamination All the cell lines tested negative for mycoplasma contamination.
Commonly misidentified lines No commonly mis-identified cell lines. […]

The subject of series [2] is MCF-7 cells. The experiment in a line: cell cytotoxic effects against MCF-7 cells (72 h), A490. It counts as cell-based, human. The following applies: MCF-7, 72 h; for viability at 0.1 µM / viability at 1 µM / viability at 10 µM: Homo sapiens, MCF7, 72 h, read-out: A490 (control =1) ave. The procedure:
!" ' ' '! !" ' ' '! !" ' ' '!!" ' ' '!!" ' ' '!!" ' ' '!!" ' ' '!!" ' ' '! !" ' ' '! !" ' ' '! !" ' ' '! !"#$
( % ) * '! '' '# '+ '$ '( '%
! " # $ %& %% %' %( %) %! %"
!" ' ' '! !" ' ' '!!" ' ' '!!" ' ' '!!" ' ' '!!" ' ' '!!" ' ' '! !" ' ' '! !" ' ' '! !" ' ' '! !" ' ' '! […]
Supplementary Fig. 46. a, Cell cytotoxic effects of DDPs against MCF-7 cells (72 h).
dose dependent cytotoxic effects against MCF-7 cells were tested their inhibitory activity against mammosphere
formation. Compound in blue (16) was also performed mammosphere assay as negative control. Data represent
mean±s.d. from three independent replicate experiments. […]
Source data underlying Supplementary Figure 46a are provided in a Source Data file. […]

For series [3], the system named is MCF-7 cells. Description: mammosphere formation assay. It counts as cell-based, human. The following applies: MCF-7, 5 μM, 7 days; for MFE (%) ave: mean of 3, control 0.87; for MFE (control = 1) ave: relative to control = 1; for MFE (%): single replicates. The procedure:
We also evaluated antiproliferative activity against cancer stem cells (CSCs), which are a small sub-population in tumour bulk identified in most cancer cells and clinical samples[52]. CSCs have been a major problem in cancer therapy because they are responsible for recurrence, metastasis and drug resistance to chemotherapeutic agents that affect proliferative cells[53]–[56]. Anti-CSC activity was evaluated by the inhibition of sphere-forming ability, a well-studied method to enrich the CSC-like population, and selective cytotoxicity against one of the most reliable CSC markers, aldehyde dehydrogenase (ALDH)-positive cells. […] Low-toxicity 16 was also added as a negative control. […] We next evaluated the three DDPs that inhibited mammosphere formations against ALDH-positive cells, a functional marker for breast CSCs. MCF-7 cells were treated with 1 μM of 11, 12 or 22, and the ALDH-positive cell population was analysed by using a fluorescence activated cell sorter (Supplementary Fig. 46b). […] Thus, for the first time, we successfully found DDPs with potent antiproliferative effects on the CSC-like population in MCF-7 cells, which may lead to new anti-CSC drugs.
Fig. 5 DDPs show anti-CSC activity in breast cancer cell line MCF-7. a Effect of DDPs on mammosphere formation. After the cells were cultured in the presence of 5 μM DDPs for 7 days, the number of mammospheres was microscopically counted and the percentage of mammosphere-forming cells was determined as mammosphere-forming efficiency (MFE; %). Data represent mean ± s.d. from three independent replicate experiments. P-values were calculated by a two-sided unpaired Student’s t-test, compared with control. b Micrographs show representative images of mammosphere formation from three independent replicate experiments using compound 11, 12, 16, 22. The scale bar, […]. c Effect of DDPs (1 μM, 3 days) on ALDH-positive cells in MCF-7 cells. Data represent mean ± s.d. from three independent replicate experiments. P-values were calculated by a two-sided unpaired Student’s t-test, compared with control. d Dose-dependent effect of compound 12 on ALDH-positive cells in MCF-7 cells. Data represent mean ± s.d. from three independent replicate experiments. P-values were calculated by a two-sided unpaired Student’s t-test. Source data underlying Fig. 5a, c, d are provided in a Source Data file.

Where [4] appears, read: 0.1 µM (DMSO 0.002%), control 1.064.
Setting [5] is: 1 µM (DMSO 0.02%), control 1.104.
[6] abbreviates: 10 µM (DMSO 0.2%), control 1.049.

As for `Cc1cn([C@H]2C[C@H](N=[N+]=[N-])[C@@H](CO)O2)c(=O)[nH]c1=O` [AZT, reference compound], in series [1] (MAGI assay, read-out: EC50), the pEC50 is 7.53. Moreover, the pEC50 in series [1] (average of numeric determinations, read-out: Avg. EC50) is 7.53. Besides, in the series on MAGI cells, the CC50 was over 10000 nM and the Cytotoxicity was over 10 µM.

`O=c1[nH]cc(F)c(=O)[nH]1` [Compound 5-FU, 5-fluorouracil, reference compound]: the viability at 0.1 µM in the series on MCF-7 cells [2] (0.1 µM (DMSO 0.002%)) turned out to be 75.5%. Moreover, in the series with MCF-7 cells [2] (1 µM (DMSO 0.02%)), the viability at 1 µM came to 67.3%. In addition, the viability at 10 µM in the series on MCF-7 cells [2] (10 µM (DMSO 0.2%)) turned out to be 55.5%. Besides, the A490 ave with MCF-7 cells [2] (setting [4]) stood at 0.803. Moreover, the A490 ave with MCF-7 cells [2] (setting [5]) is given as 0.744. For the same molecule, the A490 ave in the series on MCF-7 cells [2] (setting [6]) is on record as 0.582. In the series with MCF-7 cells [3], the “MFE (%) ave” value amounted to 1.09%; the “MFE (control = 1) ave” value was 1.25; the “MFE (%)” value was 1.16% and 1.20% and 0.90%.

`Cc1oc(=O)cc(O)c1C` [Compound 1]: the negative logarithm of the EC50 (pEC50) in series [1] (Human immunodeficiency virus 1, MAGI, average of numeric determinations, read-out: Avg. EC50) was 7.12. Further, in the series with MAGI cells (single determinations), the Cytotoxicity is >10 µM and 9.224 µM and 8.859 µM.

With `COc1cccc2c1C(=O)c1c(O)c3c(c(O)c1C2=O)C[C@@](O)(C(=O)CO)C[C@@H]3O[C@H]1C[C@H](N)[C@H](O)[C@H](C)O1` [Dox, doxorubicin, reference compound], the viability at 0.1 µM in the series with MCF-7 cells [2] (0.1 µM (DMSO 0.002%)) stood at 82.9%. In addition, the viability at 1 µM in the series on MCF-7 cells [2] (1 µM (DMSO 0.02%)) was 47.4%. The viability at 10 µM in the series on MCF-7 cells [2] (10 µM (DMSO 0.2%)) was 21%. In the series on MCF-7 cells [2] (setting [4]), the A490 ave was 0.882. Also, the A490 ave in the series with MCF-7 cells [2] (setting [5]) was 0.523. Besides, the A490 ave in the series on MCF-7 cells [2] (setting [6]) was determined as 0.220. In the series on MCF-7 cells [2] (10 µM (DMSO 0.2%), single replicates), the A490 came to 0.193. In the series with MCF-7 cells [3], the “MFE (%) ave” value came out at 0.58%; the “MFE (control = 1) ave” value is reported as 0.67; the “MFE (%)” value was 0.68% and 0.52% and 0.54%.

On to `CC(C)=CCCC1(C)OC1CC/C(C)=C/CC/C(C)=C/Cc1c(O)c(C)c(C)oc1=O` (centres unmarked) [Compound 3], for which the pEC50 in series [1] (Human immunodeficiency virus 1, MAGI, single determinations, read-out: Efficacy (EC50)) was under 5.00.

The values above are taken from PMC7156458, “Synthetic biology based construction of biological activity-related library of fungal decalin-containing diterpenoid pyrones” (Nature Communications, 2020).
